From publication PMC11324770, “A novel in vitro high-content imaging assay for the prediction of drug-induced lung toxicity” (Archives of Toxicology, 2024)
pIC50: −log10 of the molar value.

Experiments:
[1] = system: occludin in A549 cells; assay: High-content imaging of junctional occludin staining in A549 cells; assay type: cell-based; conditions: for area of junctional staining present at the cell membrane compared to DMSO controls: A549, 24 h, concentration-dependent, Fig. 2 shows TNFα/TGFβ as a combination
Method: A549 (ATCC), an alveolar epithelial cell line, and CALU-3 (ATCC), an epithelial cell line, were cultured in Dulbecco’s modified Eagle’s medium (DMEM) supplemented with 10% foetal bovine serum (FBS). 16HBE bronchial epithelial cells, kindly provided by Carl Staples (University of Southampton), were cultured in DMEM supplemented with 10% FBS and 1% non-essential amino acids). All culture media materials were purchased from Thermo Fisher Scientific. For imaging experiments, cells were seeded at 10,000 cells per well in 96-well CellCarrier imaging plates (Perkin Elmer) and cultured for 72 h to allow tight junction formation. All experiments were carried out between passages 3 and 15.
All tested compounds were synthesized internally and provided in 100% DMSO. Compounds were diluted in appropriate media to a 9-point concentration range from 100 µM down to 15 nM with a final concentration of 1% DMSO. Cigarette smoke extract (CSE) was produced by passing smoke from 5 University of Kentucky research cigarettes with filters removed through PBS with an air pump at a rate 0.07 L/min. CSE was diluted in appropriate media to a concentration range of 12% to 0.01%. TNF-α and TGF-β (Thermo Fisher Scientific) were diluted in appropriate media to a concentration range of 50 ng/ml to 0.02 ng/ml. All treatments were for 24 h and terminated by removing media and fixing with 4% paraformaldehyde (PFA). Vehicle (1% DMSO) was included for each plate and all treatments were carried out in duplicate on each plate. All experiments were independently repeated at least 3 times.
Following treatment, cells were washed twice in PBS and fixed in 4% PFA for 20 min at room temperature and permeabilized using 0.5% Triton-X for 15 min at room temperature. Cells were then blocked using 5% goat serum in PBS at room temperature for 1 h. Primary antibodies were applied as per optimized conditions based on manufacturers recommended dilutions overnight at 4 °C. Cells were washed twice in PBS prior to application of secondary antibodies at a dilution of 1:5000 for 1 h at room temperature. Cells were washed twice with PBS and subsequently stained with a mixture of Hoechst and Cell Mask Deep Red at 1:1000 in PBS. Finally, cells were washed twice in PBS and either stored at 4 °C or imaged immediately. Plates were imaged using a MolecularDevices IXC. […] Cell viability was assessed through direct counts of nuclei.
Analysis modules were written using the custom module editor of MetaXpress version 6.5.4.532. […] This thickened outline mask was then applied to the cell mask image and the area of staining was quantified. […] To quantify the amount of occludin staining at the membrane, the final step of the module overlaid the thickened membrane mask with the thickened junction mask. […]

[2] = system: respiratory tract; design: method as in printed; conditions: ref not given, cited from earlier work

[Cl][Cd][Cl] [Cadmium chloride]
area of junctional staining present at the cell membrane compared to DMSO controls [1]: significant decrease | pIC50 ([1]; area of occludin staining normalized to cell number and DMSO, 24 h, 9-point range up to 100 µM, NA = no IC50 curve could be established): 5.43 | Comment (respiratory findings) ([2]; earlier non-clinical or clinical findings): Pneumonitis and fibrosis | Respiratory safety risk ([2]; earlier pivotal toxicology studies in pre-clinical species or clinic): Yes

TGF-β
area of junctional staining present at the cell membrane compared to DMSO controls [1]: significant decrease

TNF-α
area of junctional staining present at the cell membrane compared to DMSO controls [1]: significant decrease
